This is an account of results in US20150366827A1, “COMPOSITIONS AND METHODS FOR MIXING AND APPLYING MIXED OXIDANT COMPOSITIONS FOR DAIRY ANIMAL TREATMENT” (GEA Farm Technologies, Inc., priority 2009, published 2015).

Series [1] in a line: Loss of color of colorants exposed to mixed oxidant, judged on teat. Format: physicochemical, dairy animal. The procedure:
(§1) A teat dip composition is defined as stable when the activity of the mixed oxidant decreases by less than about 25% over a 12 hour to 72 hour period. The Tables 1 through 3, and 5 below show the stability of mixed oxidants when exposed to various additives for 12 hours to 96 hours. […] In each Table 1 through 5, the beginning mixed oxidant titrated at between 3800 ppm to 4100 ppm measured as available chlorine.
Colorants are added to teat dips to provide a visual indicator that a teat dip was applied to a diary animal teat.
Preferably, a stable colorant is added to the teat sanitizer composition, but the colorant must be visible on the teat at the Ready-to-Use concentration. Some colorants are unacceptable because they are stable in their color in solution, but they are not visible on the teat after an exposure to the mixed oxidant for a period of time.

The nature of series [2]: Loss of mixed oxidant activity on exposure to additives (iodometric thiosulfate titration). The arrangement: % Loss of mixed oxidant activity at (23° C.) / % Loss of Activity at (23° C.): concentration or dose not given beside the values. Particulars: for % Loss of mixed oxidant activity after 24 hours at (23° C.) exposure to mixed oxidant: emollients, beginning mixed oxidant 3800-4100 ppm as available chlorine. Format: physicochemical. The procedure:
The activity of a mixed oxidant system is preferably measured with an iodometric titration by the addition of excess iodide and acid and titration of the resulting iodine (in the form of triiodide) with sodium thiosulfate. This method can measure the various oxidants in the mixture, comprising chlorine.
as §1

Setting [3] is: chelators, 0.1 days exposure to mixed oxidant, 23° C.

Regarding `O=S(=O)([O-])c1ccc(N=Nc2c(O)ccc3cc(S(=O)(=O)[O-])ccc23)cc1.[Na+].[Na+]` [Yellow #6], the “Color intensity on teat after 1 day exposure to 4000 ppm mixed oxidant” value (from here on “Color intensity on teat”) in series [1] is “Clear”.
In the case of `O=C([O-])C1=NN(c2ccc(S(=O)(=O)[O-])cc2)C(=O)C1N=Nc1ccc(S(=O)(=O)[O-])cc1.[Na+].[Na+].[Na+]` (stereo not drawn) [Yellow #5], the “Color intensity on teat” value in series [1] was “Clear”. In addition, the “Visibility of the dye once applied to a dairy animal teat” value in series [1] (after exposure to mixed oxidant) was “unacceptable”. For the same compound, the “Color in the composition after exposure to the mixed oxidant” value in series [1] (in solution, after exposure to mixed oxidant) was “still has some color”.
As to `CCCCCCCCCCCCCCCCCC(=O)OCCCCCCCC` [Octyl stearate], in series [2] (23° C.), the “% Loss of mixed oxidant activity after 24 hours at (23° C.) exposure to mixed oxidant” value (from here on “% Loss … to mixed oxidant”) is on record as 11%.
In the case of Nonylphenol ethoxylate, the “% Loss of mixed oxidant activity at (23° C.)” value in series [2] (surfactants, 2 days exposure to mixed oxidant, 23° C.) turned out to be 55%.
With `O=C([O-])[C@H](O)[C@@H](O)[C@H](O)[C@H](O)CO.[Na+]` [Sodium Gluconate], the “% Loss of mixed oxidant activity at (23° C.)” value in series [2] (setting [3]) is listed as 90%.
`OCC(O)CO` [Glycerin]: the “% Loss … to mixed oxidant” value in series [2] (23° C.) is 97%.
On to Cocamido propyl betaine, for which the “% Loss of mixed oxidant activity at (23° C.)” value in series [2] (surfactants, 1 day exposure to mixed oxidant, 23° C.) came out at 56%.
Take EDTA 100: the “% Loss of mixed oxidant activity at (23° C.)” value in series [2] (setting [3]) is 94%.
With `OC[C@@H](O)[C@@H](O)[C@H](O)[C@@H](O)CO` [Sorbitol], in series [2] (23° C.), the “% Loss … to mixed oxidant” value is 78%.
`COc1cc(S(=O)(=O)[O-])c(C)cc1N=Nc1c(O)ccc2cc(S(=O)(=O)[O-])ccc12.[Na+].[Na+]` [FD&C Red #40]: the “Color intensity on teat” value in series [1] is on record as “Clear”.
With `CC(O)CO` (stereo not drawn) [Propylene glycol], the “% Loss … to mixed oxidant” value in series [2] (23° C.) is listed as 71%; in series [2] (23° C., listed as Propylene Glycol), 7%.
Consider `CC(C)CCCCCCCCCCCCCCC(=O)OC(C)C` [Isopropyl Isostearate], for which, in series [2] (23° C.), the “% Loss … to mixed oxidant” value was determined as 11%.
On to `CN(C)c1ccc2nc3ccc(=[N+](C)C)cc-3sc2c1` [Methylene Blue], for which, in series [1], the “Color intensity on teat” value is “Clear”.
Still for that read-out and setting: the value for `CCN(Cc1cccc(S(=O)(=O)[O-])c1)c1ccc(C(=C2C=CC(=[N+](CC)Cc3cccc(S(=O)(=O)[O-])c3)C=C2)c2ccccc2S(=O)(=O)[O-])cc1.[Na+].[Na+]` [FD&C Blue 1] was “Clear”.
For `CCCCCCCCCCCCc1ccc(S(=O)(=O)O)cc1` [DDBSA, dodecylbenzenesulfonic acid], the “% Loss of Activity at (23° C.)” value in series [2] (antimicrobials, 2 days exposure to mixed oxidant, 23° C.) is 6%.
Turning to `O=P(O)(O)OP(=O)(O)OP(=O)(O)O` [Na, sodium Tripolyphosphate], in series [2] (chelators compatible with mixed oxidant), the “Stability of chelator with mixed oxidant (in words)” value is recorded as “stable”. The “% Loss of mixed oxidant activity at (23° C.)” value in series [2] (chelators, 2 days exposure to mixed oxidant, 23° C.) stood at 3.5%.
Take `CC(C)CCCCCCCCCCCCCCCOC(=O)CCCCC(=O)OCCCCCCCCCCCCCCCC(C)C` [Diisostearyl Adipate]: in series [2] (23° C.), the “% Loss … to mixed oxidant” value is 13%.
